These results are taken from patent US4289876A, “Antisecretory agents” (Bristol-Myers Company, priority 1980, dated 1981).

Series [1] deals with T1, histamine H2-receptor (Cavia porcellus, UniProt P47747).
T1 construct: The spontaneously beating right atrium was dissected free from other tissues; from tissue; host or cells: isolated spontaneously beating right atrium of male Hartley guinea pigs
The series can be described thus: Histamine H2-receptor antagonism, isolated guinea pig right atria assay (displacement of histamine concentration-response curve for atrial rate). On the procedure: Subsequent investigations by Hughes and Coret, Proc. Soc. […] Black et al., Agents and Actions, 3, 133 (1973) and Brimblecombe et al., Fed. […] The present comparative studies were carried out using a modification of the procedure reported by Reinhardt et al., Agents and Actions, 4, 217 (1974).
Male Hartley strain guinea pigs (350-450 gm.) were sacrificed by a blow on the head. The heart was excised and placed in a Petri dish of oxygenated (95% O2, 5% CO2) modified Krebs solution (g./liter: NaCl 6.6, KCl 0.35, MgSO4.7 H2 O 0.295, KH2 PO4 0.162, CaCl2 0.238, NaHCO3 2.1 and dextrose 2.09). The spontaneously beating right atrium was dissected free from other tissues and a silk thread (4-0) attached to each end. The atrium was suspended in a 20 ml. muscle chamber containing oxygenated modified Krebs solution maintained at 32° C. Atrial contractions were recorded isometrically be means of a Grass FT 0.03 force displacement transducer and recordings of contractile force and rate were made with Beckman RP Dynograph.
A resting tension of 1 g. was applied to the atrium and it was allowed to equilibrate for 1 hour.
Concentration-response curve displacement factors were calculated as follows: [formula] […] [formula]

The conditions of series [2]: in vivo; cited from earlier work.
Series [3] deals with histamine H2-receptors. Particulars: Black et al., Nature 1972; cited from earlier work.
Series [4] concerns H2-receptor. Particulars: cited from earlier work.
Series [5] concerns peptic ulcer disease. Particulars: clinical evaluation, Gray et al., Lancet 1977; cited from earlier work.
For series [6] the following is noted: cited from earlier work.
The mark [7] stands for this setting: histamine ED50 after 30 minute incubation with test compound at 3 × 10^-5 M.

T1 sequence (P47747 whole entry): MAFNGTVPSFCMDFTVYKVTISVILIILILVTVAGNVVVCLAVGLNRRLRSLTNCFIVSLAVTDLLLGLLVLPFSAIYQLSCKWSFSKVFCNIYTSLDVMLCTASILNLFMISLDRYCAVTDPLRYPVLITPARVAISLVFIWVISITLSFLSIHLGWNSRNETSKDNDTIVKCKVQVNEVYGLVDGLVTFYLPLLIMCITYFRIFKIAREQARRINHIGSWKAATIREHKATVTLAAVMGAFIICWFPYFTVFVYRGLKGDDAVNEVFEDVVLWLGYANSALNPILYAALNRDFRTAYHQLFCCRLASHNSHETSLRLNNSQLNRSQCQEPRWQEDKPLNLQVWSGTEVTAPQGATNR

Regarding `C#CCNC(=C[N+](=O)[O-])NCCSCc1ncccc1Cl` [BL-6075, 1-Nitro-2-(2-propynylamino)-2-{2-[(3-chloro-2-pyridyl)methylthio]ethylamino}ethylene], the “Activity Ratio Relative to Cimetidine” value in series [1] (Table 1, ratio of displacement factors, 3 × 10^-5 M) stood at 2.09. Further, the “Histamine ED50 With 95% Confidence Limits” value in series [1] (setting [7]) came to 20.97 µg/mL.

Consider `C#CCNC(=NCCSCc1ncccc1Cl)NC#N` [BL-6083, N-Cyano-N'-(2-propyn-1-yl)-N"-{2-[(3-chloro-2-pyridyl)methylthio]ethyl}guanidine], for which the “potency/activity relative to cimetidine as a histamine H2-receptor antagonist” value in series [1] (based on displacement factors) came to 8.19 times. Also, in series [1] (setting [7]), the “Histamine ED50 With 95% Confidence Limits” value was 57.92 µg/mL.

Regarding `CNC(=S)NCCCCc1cnc[nH]1` [Burimamide], the oral absorption result in series [2] is “oral absorption is poor”. In addition, the “mode of antagonism at histamine H2-receptors” value in series [3] is reported as “competitive antagonist”.

In the case of `CN/C(=N/CCSCc1nc[nH]c1C)NC#N` [Cimetidine], the “Histamine ED50 With 95% Confidence Limits” value in series [1] (setting [7]) came out at 4.80 µg/mL. Moreover, the “Concentration-Response Curve Displacement Factor” value in series [1] (test compound 3 × 10^-5 M, rightward displacement of histamine curve) is on record as 25.26. Further, the “potency/effectiveness as H2 antagonist vs. earlier compound” value in series [4] is on record as “as effective an H2 antagonist as metiamide”. In series [5], the “efficacy in treatment of peptic ulcer disease” value is “effective therapeutic agent in the treatment of peptic ulcer disease”.

Turning to `NCCc1c[nH]cn1` [Histamine], the “Histamine ED50 With 95% Confidence Limits” value in series [1] (histamine control before BL-6075, N=3) is 0.39 µg/mL. The “concentration of maximal response (atrial rate)” value in series [1] (histamine, cumulative addition) was 30 µM.

In the case of `C/N=C(\S)NCCSCc1[nH]cnc1C` [Metiamide], the “potency/effectiveness as H2 antagonist vs. earlier compound” value in series [4] is “more potent than burimamide”. The “oral activity in man” value in series [6] is given as “orally active in man”.
